Results on five compounds are retold here after patent EP1276895B1, “METHOD FOR THE IDENTIFICATION OF ACTIVE SITE PROTEASE INACTIVATORS” (THE UNIVERSITY OF GEORGIA RESEARCH FOUNDATION, INC., priority 2000, dated 2001).

Values joined by “and” are separate entries in the source; they are usually repeats but may differ in a detail not shown here. Equal values may be shown once. Residues, ends and D or L forms follow the SMILES beside them. *: point of attachment. AFC = O=c1cc(C(F)(F)F)c2ccc(N*)cc2o1; Cbz = O=C(OCc1ccccc1)*; CH2F = FC*

In experiment [1] the test system is purified Taenia solium cysteine protease. Put plainly: Competitor assay of low Vmax substrates (vehicles) against high Vmax substrate cocktails (Step III), purified protease. The conditions noted are these: for inhibition in the presence of the 1.4% cocktail: 1.4% cocktail = Z-FR-AFC 1X10^-6M; for inhibition with the final cocktail (7.4%): 7.4% cocktail = Z-FR-AFC + Z-FAR-AFC + Z-AAK-AFC + AP-AFC + Z-VLR-AFC, 1X10^-6 M each, vehicle 8X10^-6 M; for Ki of vehicle: Dixon plot, preliminary, values not reported. Format: biochemical. As to the method: (We employed "Vmax" here although Kcat could also be used). Due to the lower number of substrates, a percentage was not chosen for the "BOTTOM %" " substrates. Alternately, all substrates which were not cleaved as determined by a value of 10 uM/hr or less, were chosen to be tested in this step for competitive ability. From this point forth, the term "vehicle" will represent low Vmax substrates that were capable of inhibiting cleavage of the percent cocktails. In this instance, we tested for "vehicles" which inhibited cleavage of the TOP 1.4% cocktail (they were delivered into the active site). Based upon our results from Step II, the top 1.4% cocktail was composed of Z-Phe-Arg-AFC, the highest cleaved substrate.
The experiment began with a competitor test between the noncleaved low Vmax substrates and the highest Vmax substrate, Z-Phe-Arg-AFC. Concentrations were varied between the low Vmax substrate and Z-Phe-Arg-AFC, as described above under "refinement of assay" until a relative inhibition profile was obtained.
The mixture was allowed to equilibrate for a period of 30 minutes. Finally, active purified enzyme was added to the tubes at a concentration which was always 50 times less than the concentration of the high and low Vmax substrates, in order to insure saturation conditions. This concentration varied from purification to purification and the amount added depended upon the yield and specific activity of the purified protease.
Positive controls were set up similarly as described for test controls, except that solvent was added in substitution for the low Vmax substrate (in a volume equal to the low Vmax volume addition). All of the substrates could be dissolved in dimethylsulfoxide (DMSO), and therefore, this was the solvent of choice. Negative controls were set up by adding the low Vmax and the high Vmax substrate in a tube without the protease. All potential non-proteolytic induced liberation of AFC was therefore controlled for in this tube (a feature which also insured stability of the AFC substrates, since these substrates will freely liberate AFC when unstable). A tube set will be established for this negative control.
All controls were set up in triplicate, and experiments repeated a minimum of five times. The assays were incubated at 37°C, for 18 hours overnight.
Percent inhibition was calculated as: %Inhibition =; ((AFC positive for"Y"-AFC negative for"Y")-(AFC test-AFC negative for"Y")X100)/(AFC positive for "Y"-AFC negative for "Y") [formula]
A 2.9% cocktail of the high Vmax substrates was made. This was composed of Z-FR-AFC and the second most cleaved substrate, Z-FAR-AFC. The vehicles promoted from the initial screenings above were again tested for competitive inhibition ability with the new cocktails. Their concentrations were set identically to those which were "fixed" in the previous protocols. In other words, 8X10^-6M of the vehicle was added to the culture tube with 1X10^-6 M of Z-FR-AFC and 1X10^-6 M of Z-FAR-AFC. Active protease was added last at a concentration that was 50 times less than the concentration of the high Vmax substrate (to ensure saturating conditions).
In similar experimental fashion, a 4.4%, 5.9%, and 7.4% cocktail were tested with each of the promising vehicles. Each percentage point represented an increase by one substrate. Each of the individual components in the cocktail were added at 1X10^-6 M each, to 8X10^-6 M of the vehicle. The composition of the cocktails was as follows: 4.4% cocktail: Z-FR-AFC, Z-FAR-AFC, and Z-AAK-AFC (third highest cleaved substrate); 5.9% cocktail: Z-FR-AFC, Z-FAR-AFC, Z-AAK-AFC, and AP-AFC (fourth highest cleaved substrate); 7.4% cocktail: […], Z-FAR-AFC, Z-AAK-AFC, AP-AFC, and Z-VLR-AFC. We stopped at this number of substrates in the cocktail, since confidence was obtained that inhibitory potential of vehicles could be "diluted out."
Finally, a manageable set of candidate vehicles was determined. […]

The target in experiment [2] is Cathepsin B (cysteine) (Homo sapiens, UniProt P07858). Put plainly: Differential cleavage (selectivity) test, Cathepsin B. The conditions noted are these: 0.4 M Citrate pH 6.1, 10 mM L-cysteine, substrate Z-ARR-AFC; for inhibition at 0.0003 µM: inhibitor 3 X 10^-10 M. Type of experiment: biochemical. On the procedure: In order to perform the assay, the vehicle (for Step VI) or inhibitor (for Step IX) were incubated with the appropriate substrate in the correct assay buffer and allowed to equilibrate. Subsequently, the protease was added, and the assay was allowed to incubate for an appropriate time. The concentrations used in this experiment were as follows: Vehicle was set up at 4 X 10^-5 M in final assay buffer; Inhibitor was set up at 3 X 10^-10 M in the final assay buffer. Accordingly, the dosages employed should be the minimal amount of vehicle or inhibitor necessary to induce inhibition. […] Substrates were set up based upon the preferred substrate for cleavage of the particular enzyme.
Positive controls were set up similarly as described for test controls, except that solvent was added in substitution for the inhibitor or vehicle (in a volume equal to the volume of inhibitor or vehicle addition). All of the inhibitors and vehicles could be dissolved in dimethylsulfoxide (DMSO), and therefore, this was the solvent of choice. Negative controls were set up by adding the inhibitor or vehicle and the preferred substrates in a tube without the protease. All potential non-proteolytic liberation of AFC was therefore controlled for in this tube (a feature which also insured stability of the AFC substrates, since these substrates will freely liberate AFC when unstable).
All controls were set up in triplicate, and experiments were repeated a minimum of five times.
Percent inhibition was calculated as: % Inhibition = ((AFC positive for ʺSIʺ-AFC negative for ʺSIʺ)-(AFC test-AFC negative for ʺSIʺ))/(AFC positive for ʺSIʺ-AFC negative for ʺSIʺ) × 100 [formula] In this preliminary test, we employed the following human-derived enzymes (with indicated mechanistic class): Cathepsin B (cysteine), Cathepsin L (cysteine), Cathepsin H (cysteine), Cathepsin D (aspartic) Trypsin (serine), the purified Taenia solium cysteine protease, and the Taenia solium crude mix. Cathepsin B was prepared in an assay buffer of 10 mM L-cysteine in 0.4 M Citrate buffer, pH 6.1, using Z-ARR-AFC as the cleavage substrate. Cathepsin L was prepared in an assay buffer of 10 mM L-cysteine in 0.4 M Citrate buffer, pH 5.5, using Z-FR-AFC as the cleavage substrate. Cathepsin H was prepared in an assay buffer of 10 mM L-cysteine in 0.15 M PBS buffer, pH 6.8, using L-R-AFC as the cleavage substrate. Cathepsin D was prepared in an assay buffer of 0.15 M PBS, pH 7.1, using Z-RGFFP-AFC as the cleavage substrate. Trypsin was prepared in an assay buffer of 0.15 M PBS, pH 8.0, supplemented with 100 mM CaCl2 and with Z-R-AFC as the cleavage substrate. Enzyme was incubated so that it was at least 50 times less than the concentration of substrate in order to insure saturating conditions.

Where [3] appears, read: vehicle 8X10^-6M, purified protease.

For the compound `CC(C)C[C@H](NC(=O)OCc1ccccc1)C(=O)N[C@@H](CC(C)C)C(=O)N[C@@H](Cc1ccc(O)cc1)C(=O)Nc1ccc2c(C(F)(F)F)cc(=O)oc2c1` [Z-LLY-AFC, Z-Leu-Leu-Tyr-AFC] (Cbz-Leu-Leu-Tyr-{AFC}), the “inhibition in the presence of the 1.4% cocktail” value in experiment [1] (setting [3]) is “greater than 20%”. In addition, in experiment [1] (purified protease), the “inhibition with the final cocktail (7.4%)” value (“inhibition … (7.4%)” for short) was ≥ 50%. Also, in experiment [1], the Ki of vehicle result is recorded as “lowest Ki values”. The inhibition at 40 µM in experiment [2] (vehicle 4 X 10^-5 M) turned out to be 0%.
For `CC(C)C[C@H](NC(=O)OCc1ccccc1)C(=O)N[C@@H](CC(C)C)C(=O)N[C@@H](Cc1ccc(O)cc1)C(=O)CF` [Z-LLY-FMK, Z-Leu-Leu-Tyr-FMK] (Cbz-Leu-Leu-Tyr-CH2F), in experiment [2], at 0.0003 µM the inhibition was 0%.
On to `CC(C)C[C@H](NC(=O)[C@H](CC(C)C)NC(=O)[C@H](CC(C)C)NC(=O)OCc1ccccc1)C(=O)CF` [Z-LLL-FMK, Z-Leu-Leu-Leu-fluoromethylketone] (Cbz-Leu-Leu-Leu-CH2F), for which, in experiment [2], testing at 0.0003 µM gave an inhibition of 0%.
Regarding Mu-Leu-Tyr-AFC [Mu-LY-AFC], in experiment [1] (purified protease), the “inhibition … (7.4%)” value is listed as ≥ 50%. In addition, the Ki of vehicle entry in experiment [1] is given as “lowest Ki values”. In experiment [1] (purified protease, V = P * M, P = inhibition with first (1.4%) cocktail, M = inhibition with last (7.4%) cocktail, vehicle 8X10^-6M, each cocktail substrate 1X10^-6 M), the “V Value” is 0.452 and 0.450. For the same compound, in experiment [2] (vehicle 4 X 10^-5 M, 40 µM), the “% Inhibition” value is on record as 0%.
For the compound `CC(C)C[C@H](NC(=O)OCc1ccccc1)C(=O)N[C@@H](CC(C)C)C(=O)N[C@@H](CC(C)C)C(=O)Nc1ccc2c(C(F)(F)F)cc(=O)oc2c1` [Z-LLL-AFC, Z-Leu-Leu-Leu-AFC] (Cbz-Leu-Leu-Leu-{AFC}), the “inhibition in the presence of the 1.4% cocktail” value in experiment [1] (setting [3]) is on record as “greater than 20%”. In experiment [1] (purified protease), the “inhibition … (7.4%)” value was ≥ 50%. Moreover, the Ki of vehicle entry in experiment [1] is listed as “lowest Ki values”. The inhibition at 40 µM in experiment [2] (vehicle 4 X 10^-5 M) amounted to 0%.

What is called inhibition is how much of the control response was suppressed. The low end stands for little suppression, the high end for strong suppression. Usually % Inhibition stands for the share of the control response that was lost under treatment. Higher therefore signals a response far below the control.
